Data as given in US12215078B2, “Compositions and methods for protein labeling, modification, analysis, and targeted delivery” (University of Massachusetts, priority 2018, dated 2025).
“Also recorded” adds a separate entry of the source. One block for each compound: values may come before it.

What was measured:
[1] = Thiol-click (click-to-release) kinetics followed by NMR; format: physicochemical; conditions: for thiol-click reaction rate (in words): MeOH-d4, A1:thiol 2:1 (FIG. 2B); for relative reactivity in thiol and amine addition reactions (in words): both thiol and amine addition (FIG. 2B-2C)
Protocol: (§1) 10 μmol (2 eq.) of A1 molecules was dissolved in single or mixed deuterated solvents (the volume of solvent depends on the solubility of A1). Then, 5 μmol (1 eq.) of 2-(2-Methoxyethoxy) ethanethiol or benzylamine was added to the solution. The reaction was immediately followed by NMR. The final concentration of A1 for each molecule is shown at the end of supplementary information case by case. The conversion of thiol or amine was calculated from the integration of corresponding peaks by NMR and plotted against reaction time.
Compound 1, 2, 3, 4, 5, 8, 11, 12, 13: 10 μmol (2 eq.) of molecule 1, 2, 3, 4, 5, 8, 11, 12, 13 was dissolved in 1000 μL of MeOH-d4. Then, 5 μmol (1 eq.) of thiol was added to the solution. The reaction was immediately followed by NMR.
Compound 6, 7, 9: 10 μmol (2 eq.) of molecule 6, 7, 9 was dissolved in 500 μL of MeOH-d4 and 500 μL of 50 mM pH 7.4 phosphate buffer. Then, 5 μmol (1 eq.) of thiol or amine was added to the solution. The reaction was immediately followed by NMR.
Compound 10: 10 μmol (2 eq.) of molecule 10 was dissolved in 1000 μL of DMSO-d6 and 500 μL of 50 mM pH 7.4 phosphate buffer. Then, 5 μmol (1 eq.) of thiol or amine was added to the solution. The reaction was immediately followed by NMR.
Compound 14, 15, 16: 10 μmol (2 eq.) of molecule 14, 15, 16 was dissolved in dissolved in 500 μL of MeOH-d4 and 500 μL of 50 mM pH 6.2 phosphate buffer. Then, 5 μmol (1 eq.) of thiol or amine was added to the solution. The reaction was immediately followed by NMR.

[2] = Thiol-triggered declick of thiol/amine click products followed by NMR; format: physicochemical
Protocol: Typically, product of thiol-A1 or amine-A1 click product was dissolved in single or mixed deuterated solvents (the volume of solvent depends on the solubility of A1 The volume of solvent depends on the solubility of click product). Then, thiol was added to the solution. The reaction was immediately followed by NMR.
Compound 17: 10 μmol (1 eq.) of 17 was dissolved in 500 μL of MeOH-d4 and 500 μL of 50 mM pH6.8 phosphate buffer. Then, 80 μmol (8 eq.) of thiol was added to the solution. Final concentration of 17 is 10 mM.
Compound 18: 10 μmol (1 eq.) of 18 was dissolved in 500 μL of MeOH-d4 and 500 μL of 50 mM pH7.4 phosphate buffer. Then, 80 μmol (8 eq.) of thiol was added to the solution. Final concentration of 18 is 10 mM.
Compound 19: 10 μmol (1 eq.) of 19 was dissolved in 500 μL of MeOH-d4 and 500 μL of 50 mM pH7.4 phosphate buffer. Then, 10 μmol (0.5 eq.) of thiol was added to the solution. Final concentration of 19 is 10 mM.
Compound 20: 10 μmol (1 eq.) of 20 was dissolved in 1000 μL of MeOH-d4 and 500 μL of 50 mM pH7.4 phosphate buffer. Then, 10 μmol (0.5 eq.) of thiol was added to the solution. Final concentration of 20 is 6.67 mM.
Compound 21: 10 μmol (1 eq.) of 21 was dissolved in 500 μL of MeOH-d4 and 500 μL of 50 mM pH7.4 phosphate buffer. Then, 10 μmol (0.5 eq.) of thiol was added to the solution. Final concentration of 21 is 10 mM. […]

[3] = Amine-click kinetics followed by NMR; format: physicochemical
Protocol: as §1
• Compound 1, 2, 3, 4, 5, 6, 7, 8, 9, 11, 12, 13: 10 μmol (2 eq.) of molecule 1, 2, 3, 4, 5, 6, 7, 8, 9, 11, 12, 13 was dissolved in 500 μL of MeOH-d4 and 500 μL of 50 mM pH 7.4 phosphate buffer. Then, 5 μmol (1 eq.) of benzylamine was added to the solution. The reaction was immediately followed by NMR.
Compound 10: 10 μmol (2 eq.) of molecule 10 was dissolved in 1000 μL of DMSO-d6 and 500 μL of 50 mM pH 7.4 phosphate buffer. Then, 5 μmol (1 eq.) of benzylamine was added to the solution. The reaction was immediately followed by NMR.
Compound 14, 15, 16: 10 μmol (2 eq.) of molecule 14, 15, 16 was dissolved in 800 μL of MeOH-d4 and 200 μL of 50 mM pH 7.4 phosphate buffer. Then, 5 μmol (1 eq.) of benzylamine was added to the solution. The reaction was immediately followed by NMR.

β-lactoglobulin B (βLGb) = biological target: T1, β-lactoglobulin B (βLGb) (Bos taurus, UniProt P02754); test: βLGb labeling, ESI-MS and MS/MS of digests; format: biochemical; conditions: for modification sites / selectivity on βLGb: digest, MS/MS; for time until βLGb fully labelled: excess of reagent, disappearance of unmodified protein peaks in ESI-MS; for number of modifications in βLGb: mass shift, ESI-MS
T1 construct: purchased
T1 sequence (P02754 17-178): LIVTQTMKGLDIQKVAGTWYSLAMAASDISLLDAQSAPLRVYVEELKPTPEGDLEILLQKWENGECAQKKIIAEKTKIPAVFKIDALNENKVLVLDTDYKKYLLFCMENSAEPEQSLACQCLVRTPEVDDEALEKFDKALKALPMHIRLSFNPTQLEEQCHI
Protocol: For βLGb labeling reaction, βLGb was first denatured by 8 M of urea to expose the free cysteine. The denatured protein was then diluted with 50 mM pH 8.0 phosphate buffer, which results in a protein solution concentration of 100 μM. This protein solution was incubated with 20 equivalents of 1 for 5 min or with 20 equivalents of 8 for 40 min at room temperature to obtain the fully modified proteins respectively. After labeling, the reaction mixtures were injected immediately into an HPLC to remove excess labeling reagents and phosphate salts and then later analyzed by ESI-MS.
The labeled βLGb protein samples were first buffer-exchanged using 10K NMWL Amicon Ultra centrifugal filters (Millipore, Burlington, MA) with 100 mM triethylamine acetate (pH 8.0), and reconstituted with 1 M urea before enzymatic digestion. To reduce the disulfide bonds in βLGb, TCEP in water was added at a protein:TCEP molar ratio of 1:20, and the sample was incubated at room temperature for 10 min. To alkylate the reduced cysteines, iodoacetamide in water was added at a protein:iodoacetamide molar ratio of 1:80, and the sample was incubated in the dark at room temperature for 30 min. The denatured, reduced, and alkylated protein samples were then digested with trypsin at an enzyme: substrate ratio of 1:10. After 4 h of digestion at 37° C., the enzyme was separated from the mixture by centrifugation using a 10K NMWL Microcon filter (Millipore, Burlington, MA). The filtrate was then analyzed by LC-MS and LC-MS/MS.
To quench the labeling reaction and to remove excess labeling reagents and buffer salts, a Thermo Scientific Ultimate 3000 HPLC system (Thermo Scientific, Tewksbury, MA) with an OPTI-TRAP C4 reverse phase column (1×8 mm) was used. The protein was eluted using an acetonitrile gradient that increases from 1 to 99% over 12 min at a flow rate of 0.2 mL/min. The labeled protein was collected for proteolytic digestion or intact protein MS characterization.
Mass spectral analyses of the HPLC separated intact protein samples (Myo and βLGb) from the covalent labeling experiments were acquired on a Bruker AmaZon (Billerica, MA) quadrupole ion trap mass spectrometer equipped with an electrospray ionization source. The electrospray needle voltage was kept at 4 kV, and the capillary temperature was set to 250° C. Mass spectra of intact BCA protein samples were acquired on a Thermo Orbitrap Fusion Tribrid (Tewksbury, MA) mass spectrometer. The electrospray ionization source was typically operated at a needle voltage of 3800 V, and the ion transfer tube temperature was set to 325° C.
LC-MS and LC-MS/MS analyses of protein proteolytic fragments were conducted on a Thermo Orbitrap Fusion Tribrid (Tewksbury, MA) mass spectrometer. The electrospray ionization source was typically operated at a needle voltage of 2100 V, and the ion transfer tube temperature was set to 300° C. Tandem mass spectra were collected using CID with a normalized collision energy of 35%. Due to the large number of detectable peaks, an exclusion limit of 60 s was applied after five spectra had been collected for any given peak. The resolution of the Orbitrap was set to 60000.
Raw mass spectral data files were analyzed by Thermo Proteome Discoverer 2.2 software. Spectra were searched against the corresponding protein sequence. Variable modification by certain labeling reagents of the residues and the protein N-terminus was added as a dynamic modification. Other dynamic modifications such as oxidation of methionine and carboxyamidomethylation of cysteine were also used in the searches. Trypsin enzyme cleavage was selected, and a precursor mass tolerance of 10 ppm was used. Identifications of peptides and modifications at high confidence levels were used and were manually checked in all cases.

Myoglobin (Myo) = biological target: T2, Myoglobin (Myo) (Equus caballus, UniProt P68082); test: Myoglobin reversible modification and biophysical characterization; format: biochemical
T2 construct: purchased
T2 sequence (P68082 whole entry): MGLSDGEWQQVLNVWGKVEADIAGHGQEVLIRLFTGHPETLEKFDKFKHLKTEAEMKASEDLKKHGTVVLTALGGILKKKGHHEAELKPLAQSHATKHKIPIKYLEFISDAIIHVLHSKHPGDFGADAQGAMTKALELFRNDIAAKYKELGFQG
Protocol: For Myoglobin (Myo) reversible modification reactions, the modified protein solution was prepared by reacting 100 μM of the Myo with 20 equivalents of 1 for 5 min in 50 mM pH 8.0 phosphate buffer at room temperature. The proteins were collected from HPLC purification from previous modification reactions, and the excess labeling reagents were removed from the reaction mixtures. The collected protein solution was characterized by ESI-MS or other biophysical characterizations such as Circular Dichroism (CD) and Ultraviolet-Visible Spectroscopy (UV-Vis). The same protein solution was also buffer-exchanged using 10K NMWL Amicon Ultra centrifugal filters (Millipore, Burlington, MA) with 50 mM pH 7.4 phosphate buffer to yield a 100 μM solution for further reverse reaction. […] After reverse modification reaction, the reaction mixture was injected to a LC-MS system for intact protein analyses. […]
Far-UV CD analyses were performed on a Jasco J-1500 spectropolarimeter. CD spectra were recorded at room temperature over a scan range of 260 to 200 nm. […]
Temperature dependent CD measurements were also performed for the protein samples to evaluate the thermal stability (melting temperature) of Myo before and after labeling. Ellipticity at 222 nm was recorded every 1° C. from 25° C. to 90° C. […] Samples were measured in triplicates and the results were shown in average values.

Structure (SMILES): C=C(C[n+]1ccc(N(C)C)cc1)C(=O)OC [Compound 5]
thiol-click reaction rate (in words) [1]: much slower; also recorded: faster than 4

Structure (SMILES): C=C(CSCCOCCOC)C(=O)OC [Compound 17]
originally clicked T2 released in declick ([2]; 8 equivalents of ethanethiol (T1), MeOH-d4 / 50 mM pH 6.8 phosphate buffer 1:1): 70%

Structure (SMILES): C=C(COC(C)=O)C(=O)NC [Compound 9]
relative reactivity in thiol and amine addition reactions (in words) [1]: considerably slower than the corresponding acrylates

Structure (SMILES): C=C(C[n+]1ccccc1)C(=O)OC [Compound 4]
thiol-click reaction rate (in words) [1]: much slower
reactivity toward benzylamine (in words) ([3]; pH maintained, deuterated MeOH/buffer mixed media (FIG. 2C)): higher than 5

Structure (SMILES): C=C(CN(CC(=C)C(=O)OC)Cc1ccccc1)C(=O)OC [Compound 23]
benzylamine (29) released in declick ([2]; 2 equivalents of T2, MeOH-d4 / 50 mM pH 7.4 phosphate buffer 2:1): More than 80%

modification sites / selectivity on βLGb (β-lactoglobulin B (βLGb)): only the free cysteine site was modified
time until βLGb fully labelled (β-lactoglobulin B (βLGb)): ≤ 40 min
number of modifications in βLGb (β-lactoglobulin B (βLGb)): one
Structure (SMILES): C=C(C[N+](CC)(CC)CC)C(=O)NC [Compound 8]
relative reactivity in thiol and amine addition reactions (in words) [1]: considerably slower than the corresponding acrylates; also recorded: less reactive than ester 1

Structure (SMILES): C=C(COC(=O)Nc1ccc([N+](=O)[O-])cc1)C(=O)NC [Compound 10]
relative reactivity in thiol and amine addition reactions (in words) [1]: considerably slower than the corresponding acrylates

time until βLGb fully labelled (β-lactoglobulin B (βLGb)): ≤ 5 min
number of modifications in βLGb (β-lactoglobulin B (βLGb)): one to four
reversal of myoglobin modification by thiol (Myoglobin (Myo); 10 equivalents of thiol for 2 hours): reversed to unmodified myoglobin
modifications on myoglobin (Myoglobin (Myo); treated with 1, ESI-MS): Multiple modifications
Structure (SMILES): C=C(C[N+](CC)(CC)CC)C(=O)OC [Compound 1]
time for completion of reaction with the thiol ([1]; 1H NMR, 0.5 equivalent of thiol, 50 mM pH 7.4 phosphate buffer (FIG. 7)): 3 min
time for completion of reaction with benzylamine ([3]; pH 7.4): ~50 min
modification sites / selectivity on βLGb (β-lactoglobulin B (βLGb)): non-selective; also recorded: modifications of other nucleophilic residues including lysine, tyrosine and threonine
